# From publication PMC10855526 (2024)
# Legend:
# [1] = test system: A20:T20 duplex DNA (dA20:dT20) (DNA, duplex) AAAAAAAAAAAAAAAAAAAA/TTTTTTTTTTTTTTTTTTTT; test: isothermal titration calorimetry; conditions: 20 mM NaCl (30 mM Na+ in Table 1); 10 mM Na phosphate pH 7.5; 25 °C; 10 µM DNA; N constrained to 4; binding site size 5 bp
# [2] = test system: A20:T20 duplex DNA (dA20:dT20) (DNA, duplex) AAAAAAAAAAAAAAAAAAAA/TTTTTTTTTTTTTTTTTTTT; test: UV thermal melting at 260 nm; conditions: 20 mM NaCl; 10 mM HEPES pH 7.5; 200 µM chloroquine; 4 µM duplex; fitted saturating ΔTm 16 ± 2 °C
# [3] = test system: A20:T20 duplex DNA (dA20:dT20) (DNA, duplex) AAAAAAAAAAAAAAAAAAAA/TTTTTTTTTTTTTTTTTTTT; test: UV thermal melting, ΔTm binding isotherm fit; conditions: 20 mM NaCl; 10 mM HEPES pH 7.5; 4 µM duplex; chloroquine diphosphate; from ΔTm vs concentration
compound,measurement,setting,value
CCN(CC)CCCC(C)Nc1ccnc2cc(Cl)ccc12 (stereo not drawn),KD,[1],360 ± 20 µM
same,Tm increase,[2],~ 10 °C
same,KD,[3],90 ± 10 µM
